Experiments:
[1] = test system: SK-MEL-5; experiment: NCI five-dose SRB growth assay; assay type: cell-based; conditions: Homo sapiens; SK-MEL-5 (Melanoma), 48 h
[2] = test system: OVCAR-8; experiment: NCI five-dose SRB growth assay; assay type: cell-based; conditions: Homo sapiens; OVCAR-8 (Ovarian Cancer), 48 h
[3] = test system: NSC lung cancer; experiment: NCI five-dose SRB assay, subpanel average; conditions: 48 h; for GI50 / CC50: Homo sapiens; for GI50: read-out: GI50 (median growth inhibitory); for CC50: read-out: LC50 (median lethal); for TGI (total growth inhibitory): average over NSC lung cancer subpanel, five concentrations
[4] = test system: KM12; experiment: NCI five-dose SRB growth assay; assay type: cell-based; conditions: Homo sapiens; KM12 (Colon Cancer), 48 h
[5] = test system: 60 human tumor cell line panel; experiment: NCI 60 cell line one-dose SRB primary anticancer assay; assay type: cell-based; conditions: 60 cell lines assay in one dose, 10µM (title; head prints 10.0 mM), 48 h; for inhibition at 10 µM: Homo sapiens, read-out: MGI % (Mean growth inhibition percentage)
Method: A primary anticancer assay was performed for an approximately 60 human tumor cell line panel derived from nine neoplastic diseases, in accordance with the protocol of the Drug Evaluation Branch, National Cancer Institute, Bethesda, MD (Monks A. et al., J. Natl. Cancer Inst 1991, 83, 757-766; Boyd M.R. and Paull K.D., Drug. Dev. Res. 1995, 34, 91-109; Shoemaker R.H., Nat. Rev. Cancer 2006, 6, 813-823). Briefly, tested compounds were added to the culture at a single concentration (10^-5M), and the cultures were incubated for 48 h. End point determinations were made with a protein binding dye, sulforhodamine B (SRB). The results for each tested compound were reported as the growth percentage of the treated cells when compared to that of the untreated control cells. The percentage growth was evaluated spectrophotometrically versus controls not treated with test agents.

[6] = test system: SW-620; experiment: NCI five-dose SRB growth assay; assay type: cell-based; conditions: Homo sapiens; SW-620 (Colon Cancer), 48 h
[7] = test system: NCI-H460; experiment: NCI one-dose SRB growth assay; assay type: cell-based; conditions: Homo sapiens; NCI-H460 (Non-Small Cell Lung Cancer), 10^-5 M, 48 h; read-out: % Growth Inhibition (GI %)
[8] = test system: SF-268; experiment: NCI one-dose SRB growth assay; assay type: cell-based; conditions: Homo sapiens; SF-268 (CNS Cancer), 10^-5 M, 48 h; read-out: % Growth Inhibition (GI %)
[9] = test system: SF-539; experiment: NCI one-dose SRB growth assay; assay type: cell-based; conditions: Homo sapiens; SF-539 (CNS Cancer), 10^-5 M, 48 h; read-out: % Growth Inhibition (GI %)
Summary of the method: (§1)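 NCI primary one-dose screen: human tumor lines exposed to test agent (10^-5M, 48 h), then SRB protein staining; results reported as growth % versus no-drug controls.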

[10] = test system: DU-145; experiment: NCI one-dose SRB growth assay; assay type: cell-based; conditions: Homo sapiens; DU-145 (Prostate Cancer), 10^-5 M, 48 h; read-out: % Growth Inhibition (GI %)
Summary of the method: as §1

[11] = test system: HCC-2998; experiment: NCI one-dose SRB growth assay; assay type: cell-based; conditions: Homo sapiens; HCC-2998 (Colon Cancer), 10^-5 M, 48 h; read-out: % Growth Inhibition (GI %)
Summary of the method: as §1

[12] = test system: CCRF-CEM; experiment: NCI one-dose SRB growth assay; assay type: cell-based; conditions: Homo sapiens; CCRF-CEM (Leukemia), 10^-5 M, 48 h; read-out: % Growth Inhibition (GI %)
[13] = test system: SNB-75; experiment: NCI one-dose SRB growth assay; assay type: cell-based; conditions: Homo sapiens; SNB-75 (CNS Cancer), 10^-5 M, 48 h; read-out: % Growth Inhibition (GI %)
Summary of the method: as §1

[14] = test system: OVCAR-5; experiment: NCI one-dose SRB growth assay; assay type: cell-based; conditions: Homo sapiens; OVCAR-5 (Ovarian Cancer), 10^-5 M, 48 h; read-out: % Growth Inhibition (GI %)
Summary of the method: as §1

[15] = test system: NCI-H322M; experiment: NCI one-dose SRB growth assay; assay type: cell-based; conditions: Homo sapiens; NCI-H322M (Non-Small Cell Lung Cancer), 10^-5 M, 48 h; read-out: % Growth Inhibition (GI %)
[16] = test system: ACHN; experiment: NCI one-dose SRB growth assay; assay type: cell-based; conditions: Homo sapiens; ACHN (Renal Cancer), 10^-5 M, 48 h; read-out: % Growth Inhibition (GI %)
Summary of the method: as §1

[17] = test system: T-47D; experiment: NCI five-dose SRB growth assay; assay type: cell-based; conditions: Homo sapiens, T47D; T-47D (Breast Cancer), 48 h
[18] = test system: IGROV1; experiment: NCI five-dose SRB growth assay; assay type: cell-based; conditions: Homo sapiens, IGROV-1; IGROV1 (Ovarian Cancer), 48 h
[19] = test system: ovarian cancer; experiment: NCI five-dose SRB assay, subpanel average; conditions: 48 h; for GI50 / CC50: Homo sapiens; for GI50: read-out: GI50 (median growth inhibitory); for CC50: read-out: LC50 (median lethal); for TGI (total growth inhibitory): average over ovarian cancer subpanel, five concentrations
[20] = test system: colon cancer; experiment: NCI five-dose SRB assay, subpanel average; conditions: 48 h; for GI50 / CC50: Homo sapiens; for GI50: read-out: GI50 (median growth inhibitory); for CC50: read-out: LC50 (median lethal); for TGI (total growth inhibitory): average over colon cancer subpanel, five concentrations
[21] = test system: full panel of about 60 human tumor cell lines; experiment: NCI five-dose SRB assay, full panel mean; conditions: 48 h; for CC50 / GI50: Homo sapiens; for CC50: 60 cell, read-out: LC50 MG-MID (Full panel mean-graph midpoint); for GI50: read-out: GI50 MG-MID (Full panel mean-graph midpoint); for TGI MG-MID (Full panel mean-graph midpoint): five concentrations
[22] = test system: NCI/ADR-RES; experiment: NCI five-dose SRB growth assay; assay type: cell-based; conditions: Homo sapiens; NCI/ADR-RES (Ovarian Cancer), 48 h
[23] = test system: melanoma; experiment: NCI five-dose SRB assay, subpanel average; conditions: 48 h; for GI50 / CC50: Homo sapiens; for GI50: read-out: GI50 (median growth inhibitory); for CC50: read-out: LC50 (median lethal); for TGI (total growth inhibitory): average over melanoma subpanel, five concentrations
[24] = test system: DU-145; experiment: NCI five-dose SRB growth assay; assay type: cell-based; conditions: Homo sapiens; DU-145 (Prostate Cancer), 48 h
[25] = test system: SNB-75; experiment: NCI five-dose SRB growth assay; assay type: cell-based; conditions: Homo sapiens; SNB-75 (CNS Cancer), 48 h
[26] = test system: renal cancer; experiment: NCI five-dose SRB assay, subpanel average; conditions: 48 h; for GI50 / CC50: Homo sapiens; for GI50: read-out: GI50 (median growth inhibitory); for CC50: read-out: LC50 (median lethal); for TGI (total growth inhibitory): average over renal cancer subpanel, five concentrations
[27] = test system: SK-OV-3; experiment: NCI five-dose SRB growth assay; assay type: cell-based; conditions: Homo sapiens; SK-OV-3 (Ovarian Cancer), 48 h
[28] = test system: UACC-62; experiment: NCI five-dose SRB growth assay; assay type: cell-based; conditions: Homo sapiens; UACC-62 (Melanoma), 48 h

## Cc1cc(C)c(S(=O)(=O)N2CCN(c3cc4c(cc3F)c(=O)c(C(=O)O)cn4C3CC3)CC2)c(C)c1 [Compound 6b]
[1]
  GI50: 3030 nM
[2]
  GI50: 2870 nM
[3]
  GI50: 2880 nM
  CC50: > 100 µM
  TGI (total growth inhibitory): c (Compounds showed values > 100µM)
[4]
  GI50: 3.38 µM
[5]
  PCE (Positive cytotoxic effect: ratio between number of cell lines with percentage growth inhibition from 10 to >100 and total number of cell lines): 56/58
  RGI % (Range of growth inhibition percentage): 91.28 to 13.08%
  inhibition at 10 µM: 43.8%
[6]
  GI50: 3.4 µM
[7]
  inhibition at 10 µM: 60.5%
[8]
  inhibition at 10 µM: 43.3%
[9]
  inhibition at 10 µM: 53.5%
[10]
  inhibition at 10 µM: 28.6%
[11]
  inhibition at 10 µM: 52.3%
[12]
  inhibition at 10 µM: 62.7%
[13]
  inhibition at 10 µM: 63.4%
[14]
  inhibition at 10 µM: 57.8%
[15]
  inhibition at 10 µM: 25.3%
[16]
  inhibition at 10 µM: 48.7%
[17]
  GI50: 4.81 µM
[18]
  GI50: 2660 nM
[19]
  GI50: 2.89 µM
  CC50: > 100 µM
  TGI (total growth inhibitory): c (Compounds showed values > 100µM)
[20]
  GI50: 3.46 µM
  CC50: > 100 µM
  TGI (total growth inhibitory): c (Compounds showed values > 100µM)
[21]
  CC50: > 100 µM
  GI50: 3.01 µM
  TGI MG-MID (Full panel mean-graph midpoint): 89.12 µM
[22]
  GI50: 3.29 µM
[23]
  GI50: 22.3 µM
  CC50: > 100 µM
  TGI (total growth inhibitory): c (Compounds showed values > 100µM)
[24]
  GI50: 3.4 µM
[25]
  GI50: 2230 nM
[26]
  GI50: 2780 nM
  CC50: > 100 µM
  TGI (total growth inhibitory): c (Compounds showed values > 100µM)
[27]
  GI50: 3.02 µM
[28]
  GI50: 2430 nM

## CCn1cc(C(=O)O)c(=O)c2cc(F)c(N3CCN(S(=O)(=O)c4cccc5ccccc45)CC3)cc21 [Compound 7a]
[1]
  GI50: 2240 nM
[2]
  GI50: 3090 nM
[3]
  GI50: 3040 nM
  CC50: > 100 µM
  TGI (total growth inhibitory): 46.59 µM
[4]
  GI50: 2.96 µM
[5]
  PCE (Positive cytotoxic effect: ratio between number of cell lines with percentage growth inhibition from 10 to >100 and total number of cell lines): 58/58
  RGI % (Range of growth inhibition percentage): >100.0 to 40.83%
  inhibition at 10 µM: 93.8%
[6]
  GI50: 3.57 µM
[7]
  inhibition at 10 µM: 92%
[8]
  inhibition at 10 µM: 83.6%
[9]
  inhibition at 10 µM: 82.6%
[10]
  inhibition at 10 µM: 81.1%
[11]
  inhibition at 10 µM: 68.4%
[12]
  inhibition at 10 µM: 87.9%
[13]
  inhibition at 10 µM: 85.9%
[14]
  inhibition at 10 µM: 84.5%
[15]
  inhibition at 10 µM: > 100%
[16]
  inhibition at 10 µM: > 100%
[17]
  GI50: 3.35 µM
[18]
  GI50: 2470 nM
[19]
  GI50: 3.07 µM
  CC50: > 100 µM
  TGI (total growth inhibitory): 62.35 µM
[20]
  GI50: 3.39 µM
  CC50: 86.8 µM
  TGI (total growth inhibitory): 67.85 µM
[21]
  CC50: 95.5 µM
  GI50: 3.09 µM
  TGI MG-MID (Full panel mean-graph midpoint): 29.51 µM
[22]
  GI50: 3.2 µM
[23]
  GI50: 3.2 µM
  CC50: 99.7 µM
  TGI (total growth inhibitory): 28.33 µM
[24]
  GI50: 3.97 µM
[25]
  GI50: 1890 nM
[26]
  GI50: 3500 nM
  CC50: > 100 µM
  TGI (total growth inhibitory): 63.09 µM
[27]
  GI50: 3.11 µM
[28]
  GI50: 2250 nM

## CCn1cc(C(=O)O)c(=O)c2cc(F)c(N3CCN(S(=O)(=O)c4ccc(Cl)cc4)CC3)cc21 [Compound 1a]
[1]
  GI50: 1800 nM
[2]
  GI50: 2800 nM
[3]
  GI50: 2870 nM
  CC50: > 100 µM
  TGI (total growth inhibitory): 53.38 µM
[4]
  GI50: 4.07 µM
[5]
  PCE (Positive cytotoxic effect: ratio between number of cell lines with percentage growth inhibition from 10 to >100 and total number of cell lines): 56/56
  RGI % (Range of growth inhibition percentage): >100.0 to 31.3%
  inhibition at 10 µM: 75.6%
[6]
  GI50: 3.43 µM
[7]
  inhibition at 10 µM: 94.1%
[8]
  inhibition at 10 µM: 77.3%
[9]
  inhibition at 10 µM: 78.3%
[10]
  inhibition at 10 µM: 68.3%
[11]
  inhibition at 10 µM: 75.5%
[12]
  inhibition at 10 µM: > 100%
[13]
  inhibition at 10 µM: 58.2%
[14]
  inhibition at 10 µM: 48.1%
[15]
  inhibition at 10 µM: 54.1%
[16]
  inhibition at 10 µM: 71.3%
[17]
  GI50: 3.2 µM
[18]
  GI50: 3140 nM
[19]
  GI50: 3.16 µM
  CC50: > 100 µM
  TGI (total growth inhibitory): 54.29 µM
[20]
  GI50: 3.38 µM
  CC50: 95.2 µM
  TGI (total growth inhibitory): 73.15 µM
[21]
  CC50: 95.5 µM
  GI50: 2.95 µM
  TGI MG-MID (Full panel mean-graph midpoint): 29.51 µM
[22]
  GI50: 2.98 µM
[23]
  GI50: 2.56 µM
  CC50: 89.7 µM
  TGI (total growth inhibitory): 29.36 µM
[24]
  GI50: 4.11 µM
[25]
  GI50: 2600 nM
[26]
  GI50: 2930 nM
  CC50: > 100 µM
  TGI (total growth inhibitory): 54.00 µM
[27]
  GI50: 3.28 µM
[28]
  GI50: 2020 nM

— EP2987533B1, “7-substituted piperazin-1-yl fluoroquinolone compounds, their use in the treatment of cancer, pharmaceutical compositions and a method for preparation” (priority 2014, dated 2016)
